In the supplement of paper PMC10307832:

Experiments:
Assay in all cases: relative viability (nuclei count vs DMSO), 5 days (fraction); higher = more cells survive
Decitabine + Olaparib = compound: Nc1ncn([C@H]2C[C@H](O)[C@@H](CO)O2)c(=O)n1 [Decitabine] + O=C(c1cc(Cc2n[nH]c(=O)c3ccccc23)ccc1F)N1CCN(C(=O)C2CC2)CC1 [Olaparib] (partner 8 µM)
In short: (§1)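 Lung cancer cell lines in 1536-well plates got either a single drug or a fixed anchor-drug dose together with five library-drug doses (not always all listed) in √10 steps, by pin tool, on the day after seeding. Nuclei were counted after 5 days, and relative viability is the treated-to-vehicle ratio of nuclei counts. Values are medians of duplicate plates.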

Decitabine + Linsitinib = compound: Nc1ncn([C@H]2C[C@H](O)[C@@H](CO)O2)c(=O)n1 [Decitabine] + C[C@]1(O)C[C@@H](c2nc(-c3ccc4ccc(-c5ccccc5)nc4c3)c3c(N)nccn32)C1 [Linsitinib] (partner 1 µM)
In short: as §1

Cediranib + Linsitinib = compound: COc1cc2c(Oc3ccc4[nH]c(C)cc4c3F)ncnc2cc1OCCCN1CCCC1 [Cediranib] + C[C@]1(O)C[C@@H](c2nc(-c3ccc4ccc(-c5ccccc5)nc4c3)c3c(N)nccn32)C1 [Linsitinib] (partner 1 µM)
In short: as §1

[1] = compound: O=C(C[C@H]1NCCC[C@@H]1O)Cn1cnc2cc(Br)c(Cl)cc2c1=O (racemic) [Halofuginone] + CC(=O)Nc1cccc(-n2c(=O)n(C3CC3)c(=O)c3c(Nc4ccc(I)cc4F)n(C)c(=O)c(C)c32)c1 [Trametinib] (partner 0.02 µM)
In short: as §1

Cell Line	relative viability (Decitabine + Olaparib; first compound 0.04 µM)	relative viability (Decitabine + Olaparib; first compound 0.1265 µM)	relative viability (Decitabine + Olaparib; first compound 0.4 µM)	relative viability (Decitabine + Olaparib; first compound 1.265 µM)	relative viability (Decitabine + Olaparib; first compound 4 µM)	relative viability (Decitabine + Linsitinib; first compound 0.04 µM)	relative viability (Decitabine + Linsitinib; first compound 0.1265 µM)	relative viability (Decitabine + Linsitinib; first compound 0.4 µM)	relative viability (Decitabine + Linsitinib; first compound 1.265 µM)	relative viability (Decitabine + Linsitinib; first compound 4 µM)	relative viability (Cediranib + Linsitinib; first compound 0.04 µM)	relative viability (Cediranib + Linsitinib; first compound 0.1265 µM)	relative viability (Cediranib + Linsitinib; first compound 0.4 µM)	relative viability (Cediranib + Linsitinib; first compound 1.265 µM)	relative viability (Cediranib + Linsitinib; first compound 4 µM)	relative viability ([1]; first compound 0.001 µM)	relative viability ([1]; first compound 0.003162 µM)	relative viability ([1]; first compound 0.01 µM)	relative viability ([1]; first compound 0.03162 µM)	relative viability ([1]; first compound 0.1 µM)
NCI-H2023	0.137	0.15	0.126	0.0911	0.0823	0.588	0.524	0.406	0.237	0.195	0.656	0.641	0.638	0.588	0.765	0.625	0.482	0.558	0.202	0.0677
NCI-H2085	0.46	0.42	0.425	0.324	0.344	0.744	0.615	0.508	0.392	0.372	1.01	0.941	0.898	0.872	0.926	0.541	0.512	0.525	0.585	0.349
NCI-H2087	0.187	0.236	0.217	0.145	0.14	0.659	0.678	0.591	0.41	0.384	0.995	1.03	0.921	0.843	0.959	0.219	0.213	0.222	0.197	0.156
NCI-H2126	0.63	0.546	0.459	0.42	0.85	0.698	0.677	0.591	0.533	0.489	0.769	0.708	0.683	0.592	0.722	0.525	0.544	0.585	0.546	0.513
NCI-H2228	0.194	0.235	0.104	0.145	0.157	0.377	0.589	0.613	0.356	0.291	0.873	0.955	0.8	0.536	1.03	0.662	0.4	0.436	0.39	0.0996
NCI-H2347	0.528	0.578	0.469	0.464	0.424	0.936	0.935	0.725	0.639	0.625	0.979	0.86	0.919	1	0.903	0.256	0.284	0.289	0.258	0.253
NCI-H2405	0.613	0.467	0.374	0.313	0.312	0.838	0.891	0.74	0.548	0.465	1	1.25	0.838	1.06	0.836	0.696	0.69	0.678	0.599	0.502
NCI-H3122	0.34	0.307	0.225	0.201	0.206	1.01	1.01	0.941	0.788	0.711	1.01	1.07	0.986	1.02	1.03	0.192	0.241	0.258	0.219	0.25
PC-3 [JPC-3]	–	0.762	0.368	0.465	0.455	–	0.8	0.676	0.64	0.607	0.991	0.942	0.907	0.93	1.04	0.722	0.741	0.664	0.648	0.538
PC-14	0.114	0.0887	0.0551	0.0482	0.0711	–	0.784	0.268	0.283	0.23	0.935	0.986	0.905	0.897	0.965	0.809	0.618	0.702	0.154	0.0395
RERF-LC-KJ	0.615	0.608	–	0.448	0.495	0.836	0.763	0.239	0.677	0.637	0.909	0.862	0.869	0.871	0.907	0.924	0.984	0.837	0.824	0.591
SK-LU-1	0.274	0.244	0.214	0.247	0.253	0.76	0.744	0.487	0.545	0.45	1.18	1.04	0.979	1.06	1.07	0.572	0.504	0.559	0.461	0.321
SK-MES-1	0.288	0.362	0.299	0.179	0.244	0.928	0.845	0.554	0.437	0.339	1.04	1.04	1.06	0.959	1.13	0.554	0.53	0.511	0.499	0.232
SW 1573	0.257	0.239	0.17	0.127	0.111	0.666	0.793	0.697	0.408	0.392	0.71	0.698	0.743	0.754	0.861	0.563	–	0.596	0.23	0.0886
